The subject of one series is primary AML samples. The note with it: a subset of primary AML samples, 100 nM.
The subject of another series is OCI-AML3 AML cell line. The experiment in a line: Single agent cell viability (CellTiterGlo). The class given is cell-based. How it is done:
(§1) Cell lines were cultured at 37° C. in a humidified atmosphere containing 5% CO2 and expanded in T-150 flasks. […] In order to analyse the activity of the compounds as single agents, cells were seeded and treated with nine 2-fold serial dilutions of each compound dispensed individually directly into the cell assay plates. […] All the experiments were performed in triplicates. Luminescence was quantified on a multipurpose plate reader. Single agent IC50s were calculated using standard four-parametric curve fitting.

A further series relates to GDM-1 AML cell line. Kind of series: Single agent cell viability (CellTiterGlo). The class given is cell-based. As for the experimental part: as §1
For another series, the system named is MV4; 11 AML cell line. Kind of series: Single agent cell viability (CellTiterGlo). Format: cell-based. As for the experimental part:
as §1

The subject of the next series is THP-1 AML cell line. The experiment in a line: Single agent cell viability (CellTiterGlo). Format: cell-based. How it is done: as §1
For another series, the system named is KG1a AML cell line. Kind of series: Single agent cell viability (CellTiterGlo). Format: cell-based. As for the experimental part: as §1
The next series relates to KG1 AML cell line. Kind of series: Single agent cell viability (CellTiterGlo). The class given is cell-based. As for the experimental part: as §1
A further series relates to Kasumi-1 AML cell line. Kind of series: Single agent cell viability (CellTiterGlo). Format: cell-based. As for the experimental part:
as §1

The test system of a further series is Nomo-1 AML cell line. The experiment in a line: Single agent cell viability (CellTiterGlo). The class given is cell-based. As for the experimental part:
as §1

The subject of a further series is PL-21 AML cell line. The experiment in a line: Single agent cell viability (CellTiterGlo). Format: cell-based. As for the experimental part:
as §1

A further series concerns ML-2 AML cell line. The experiment in a line: Single agent cell viability (CellTiterGlo). Format: cell-based. As for the experimental part: as §1
In a further series the test system is MOLM-13 AML cell line. The experiment in a line: Single agent cell viability (CellTiterGlo). Format: cell-based. How it is done:
as §1

The subject of a further series is HL-60 AML cell line. The experiment in a line: Single agent cell viability (CellTiterGlo). Format: cell-based. How it is done: as §1
In a further series the test system is EOL-1 AML cell line. The experiment in a line: Single agent cell viability (CellTiterGlo). The class given is cell-based. How it is done: as §1
Series [1] relates to normal human CD34+ progenitor cells. The note with it: 100 nM.
The subject of series [2] is mononuclear cells from AML patient samples. The experiment in a line: Cell viability assay (Sytox blue flow cytometry) in primary AML samples. The conditions noted are these: combination at 1:1 ratio, read-out: 50% lethal concentration (LC50). The class given is cell-based, human. How it is done: Bone marrow samples from patients with AML were collected after informed consent in accordance with guidelines approved by The Alfred Hospital Human research ethics committee.
Mononuclear cells were isolated by density-gradient centrifugation Ficoll-Hypaque (GE Healthcare, Australia) density-gradient centrifugation and red cell lysis was performed using 0.156 M NH4Cl, 0.017 M Tris-HCl pH 7.2 as previously described (Rijal et al., Blood 2015, 125, 2815-2824). Cells were then re-suspended in phosphate-buffered saline containing 2% Fetal Bovine serum (FBS; Sigma, Australia). Mononuclear cells were then suspended in RPMI-1640 (GIBCO, Australia) medium containing penicillin and streptomycin (GIBCO) and heat inactivated fetal bovine serum 15% (Sigma). Cells were washed in phosphate-buffered saline (PBS) containing 2% FBS prior to use.
Freshly purified mononuclear cells from AML patient samples were adjusted to a concentration of 2.5×10^5/mL and 100 μL of cells aliquoted per well into 96 well plates (Sigma). Cells were then treated with idarubicin and Compound 2 over a […] concentration range from 1 nM to 10 μM for 48 hours. For combinations assays, drugs were added at a 1:1 ratio from 1 nM to 10 μM and cells were incubated at 37° C. 5% CO2. Cells were then stained with Sytox blue nucleic acid stain (Invitrogen, Australia) and fluorescence measured by flow cytometric analysis using the LSR-II Fortessa (Becton Dickinson, Australia). FACSDiva software was used for data collection, and FlowJo software for analysis. Blast cells were gated using forward and side scatter properties. Viable cells excluding Sytox blue were determined at 6 concentrations for each drug and the 50% lethal concentration (LC50, in μM) determined.

Where [3] appears, read: OCI-AML3, single agent, 3 days incubation, CellTiterGlo, read-out: IC50.
Setting [4] is: GDM-1, single agent, 3 days incubation, CellTiterGlo, read-out: IC50.
[5] abbreviates: MV4, 11, single agent, 3 days incubation, CellTiterGlo, read-out: IC50.
Setting [6] is: THP-1, single agent, 3 days incubation, CellTiterGlo, read-out: IC50.
Where [7] appears, read: KG1a, single agent, 3 days incubation, CellTiterGlo, read-out: IC50.
The mark [8] stands for this setting: KG1, single agent, 3 days incubation, CellTiterGlo, read-out: IC50.
Setting [9] is: Kasumi-1, single agent, 3 days incubation, CellTiterGlo, read-out: IC50.
Where [10] appears, read: Nomo-1, single agent, 3 days incubation, CellTiterGlo, read-out: IC50.
The mark [11] stands for this setting: PL-21, single agent, 3 days incubation, CellTiterGlo, read-out: IC50.
Setting [12] is: ML-2, single agent, 3 days incubation, CellTiterGlo, read-out: IC50.
The mark [13] stands for this setting: MOLM-13, single agent, 3 days incubation, CellTiterGlo, read-out: IC50.
The mark [14] stands for this setting: HL-60, single agent, 3 days incubation, CellTiterGlo, read-out: IC50.
Where [15] appears, read: EOL-1, single agent, 3 days incubation, CellTiterGlo, read-out: IC50.

Like-named read-outs stand apart in the source and are kept apart here.

In the case of `Cc1c(-c2c(-c3ccc(F)o3)sc3ncnc(O[C@H](Cc4ccccc4OCc4ccnn4CC(F)(F)F)C(=O)O)c23)ccc(OCCN2CCN(C)CC2)c1Cl` [Compound 2, (2R)-2-{[(5Sa)-5-{3-chloro-2-methyl-4-[2-(4-methylpiperazin-1-yl)ethoxy]phenyl}-6-(5-fluorofuran-2-yl)thieno[2,3-d]pyrimidin-4-yl]oxy}-3-(2-{[1-(2,2,2-trifluoroethyl)-1H-pyrazol-5-yl]methoxy}phenyl)propanoic acid], the clonogenic growth entry (in the series on primary AML samples; in [1]) was “resistant” in each case. Also, the IC50 was determined as 0.34 µM in the series on OCI-AML3 AML cell line (setting [3]); 0.027 µM in the series on GDM-1 AML cell line (setting [4]); 0.001 µM in the series with MV4; 11 AML cell line (setting [5]); 0.051 µM in the series on THP-1 AML cell line (setting [6]); 2.2 µM in the series on KG1a AML cell line (setting [7]); 0.413 µM with KG1 AML cell line (setting [8]). For the same molecule, the IC50 was 0.066 µM in the series with Kasumi-1 AML cell line (setting [9]); 0.022 µM in the series on Nomo-1 AML cell line (setting [10]); 0.238 µM in the series with PL-21 AML cell line (setting [11]); 0.022 µM in the series on ML-2 AML cell line (setting [12]); 0.004 µM in the series with MOLM-13 AML cell line (setting [13]); 0.086 µM in the series with HL-60 AML cell line (setting [14]). Besides, in the series on EOL-1 AML cell line (setting [15]), the concentration for half-maximal inhibition (IC50) was determined as 0.002 µM. Further, the CC50 in [2] (Patient AML 6200840, 48 hours) came to 0.227 µM; in [2] (Patient AML AH0131936, 48 hours), 10.7 µM; in [2] (Patient AML AH0465385, 48 hours) it was 23 µM; in series [2] (Patient AML AH0607688, 48 hours) it was 22.9 µM; in [2] (Patient AML AH0979006, 48 hours), 0.0618 µM; in series [2] (Patient AML AH1081582, 48 hours) it was 4.36 µM. In addition, the CC50 in series [2] (Patient AML AH1228742, 48 hours) was 5360 µM; in series [2] (Patient AML AH6120264, 48 hours), 0.679 µM; in [2] (Patient AML AH6181414_2, 48 hours) it was 15.5 µM; in [2] (Patient AML AH6202849, 48 hours), 13 µM; in series [2] (Patient AML AH6208160, 48 hours), 21.6 µM; in [2] (Patient AML AH6208654, 48 hours), 9.42 µM. Moreover, the CC50 was determined as 0.0556 µM in series [2] (Patient AML AH6210946, 48 hours); 0.000868 µM in series [2] (Patient AML AH6214498, 48 hours); 1.16 µM in series [2] (Patient AML AH6217528, 48 hours); 38.8 µM in series [2] (Patient AML AH6219953, 48 hours); 0.21 µM in series [2] (Patient AML AH6220847, 48 hours); 0.148 µM in [2] (Patient AML AH6223646, 48 hours). Further, the CC50 in [2] (Patient AML AH6224104, 48 hours) turned out to be 608 µM; in [2] (Patient AML AH6229985, 48 hours), 0.00483 µM; in [2] (Patient AML AH6607085, 48 hours) it was 0.143 µM; in series [2] (Patient AML AH6615742, 48 hours) it was 14.5 µM; in series [2] (Patient AML AH6627892, 48 hours) it was 14.2 µM.

Consider `COc1ccccc1-c1nccc(COc2ccccc2C[C@@H](Oc2ncnc3sc(-c4ccc(F)cc4)c(-c4ccc(OCCN5CCN(C)CC5)c(Cl)c4C)c23)C(=O)O)n1` [Compound 1, (2R)-2-{[(5Sa)-5-{3-chloro-2-methyl-4-[2-(4-methylpiperazin-1-yl)ethoxy]phenyl}-6-(4-fluorophenyl)thieno[2,3-d]pyrimidin-4-yl]oxy}-3-(2-{[2-(2-methoxyphenyl)pyrimidin-4-yl]methoxy}phenyl)propanoic acid], for which the half-inhibitory concentration (IC50) in the series on OCI-AML3 AML cell line (setting [3]) is 0.146 µM; in the series with GDM-1 AML cell line (setting [4]), 0.008 µM; in the series on MV4; 11 AML cell line (setting [5]) it was 0.001 µM; in the series on THP-1 AML cell line (setting [6]), 0.017 µM; in the series with KG1a AML cell line (setting [7]), 2 µM; with KG1 AML cell line (setting [8]), 0.39 µM. In addition, the half-inhibitory concentration (IC50) with Kasumi-1 AML cell line (setting [9]) worked out at 0.033 µM; in the series on Nomo-1 AML cell line (setting [10]), 0.013 µM; with PL-21 AML cell line (setting [11]) it was 0.065 µM; in the series with ML-2 AML cell line (setting [12]), 0.005 µM; in the series on MOLM-13 AML cell line (setting [13]), 0.002 µM; with HL-60 AML cell line (setting [14]), 0.025 µM. For the same molecule, in the series with EOL-1 AML cell line (setting [15]), the IC50 came out at 0.001 µM.

On to `Nc1ncn([C@H]2C[C@H](O)[C@@H](CO)O2)c(=O)n1` [Decitabine, decitabine], for which the half-maximal inhibitory concentration (IC50) in the series with OCI-AML3 AML cell line (Homo sapiens, OCI-AML-3, 72 h) is 8 µM; with GDM-1 AML cell line (Homo sapiens, GDM-1, 72 h), 41 µM; in the series with MV4; 11 AML cell line (Homo sapiens, MV4-11, 72 h) it was 0.4 µM; in the series with THP-1 AML cell line (Homo sapiens, THP-1, 72 h), over 30 µM; in the series with KG1a AML cell line (Homo sapiens, KG-1a, 72 h) it was 14 µM; with KG1 AML cell line (72 h), 5.8 µM. The IC50 in the series on Kasumi-1 AML cell line (Homo sapiens, Kasumi 1, 72 h) was 5.5 µM; in the series on Nomo-1 AML cell line (Homo sapiens, NOMO-1, 72 h), over 5 µM; in the series with PL-21 AML cell line (PL-21, 72 h) it was over 5 µM; in the series on ML-2 AML cell line (72 h), 14 µM; in the series on MOLM-13 AML cell line (Homo sapiens, MOLM-13, 72 h) it was 0.4 µM; in the series on HL-60 AML cell line (Homo sapiens, HL-60, 72 h), 14 µM. This molecule also returned an IC50 with EOL-1 AML cell line (Homo sapiens, EOL1, 72 h) of 0.49 µM.

The values are drawn from patent US11466023B2, “Combination of a Mcl-1 inhibitor and a standard of care treatment for hematologic cancers, uses and pharmaceutical compositions thereof” (LES LABORATOIRES SERVIER, priority 2017, dated 2022).
